Experimental data reported in ChEMBL document CHEMBL1154855 (Eur J Med Chem, 2010).

Tested on: Vaccinia virus
Assay: Antiviral activity against Vaccinia virus infected in HEL cells assessed as protection from virus-induced cytopathogenicity after 2 to 3 days by MTT assay
Assay type: functional, organism-based
Settings: Orthopoxvirus vaccinia

Row | Compound | EC50 [nM]
1 | COc1cc(/C=C/C(=O)CC(=O)/C=C/c2ccc(OC(=O)CCC(NC(=O)c3ccc(NCc4cnc5nc(N)[nH]c(=O)c5n4)cc3)C(=O)O)c(OC)c2)ccc1OC(=O)CCC(NC(=O)c1ccc(NCc2cnc3nc(N)[nH]c(=O)c3n2)cc1)C(=O)O (stereo not drawn) | > 82
2 | CCCCCCCCCC(=O)Oc1ccc(/C=C/C(=O)CC(=O)/C=C/c2ccc(OC(=O)CCCCCCCCC)c(OC)c2)cc1OC | > 147
3 | COc1cc(/C=C/C(=O)CC(=O)/C=C/c2ccc(OC(=O)[C@H](Cc3ccccc3)NC(=O)[C@@H](N)Cc3c[nH]c4ccccc34)c(OC)c2)ccc1OC(=O)[C@H](Cc1ccccc1)NC(=O)[C@@H](N)Cc1c[nH]c2ccccc12 | > 38
4 | COc1cc(/C=C/C(=O)C(CCOC(=O)CCC(NC(=O)c2ccc(NCc3cnc4nc(N)[nH]c(=O)c4n3)cc2)C(=O)O)C(=O)/C=C/c2ccc(O)c(OC)c2)ccc1O (stereo not drawn) | > 11
5 | COc1cc(/C=C/C(=O)CC(=O)/C=C/c2ccc(OCCOC(=O)CCC(NC(=O)c3ccc(NCc4cnc5nc(N)[nH]c(=O)c5n4)cc3)C(=O)O)c(OC)c2)ccc1O (stereo not drawn) | > 119
6 | O=c1[nH]c(=O)n([C@H]2C[C@H](O)[C@@H](CO)O2)cc1/C=C/Br [BRIVUDINE] | 2000
7 | Nc1nc2c(ncn2COC(CO)CO)c(=O)[nH]1 [GANCICLOVIR] | > 100000
8 | NC(=O)c1ncn([C@@H]2O[C@H](CO)[C@@H](O)[C@H]2O)n1 [RIBAVIRIN] | 85000
